Assay results from patent US10159663B2, “Substituted macrocycles useful as kinases inhibitors and methods of use thereof” (TELIGENE LTD., priority 2014, dated 2018).
pIC50: −log10 of the molar value. In brackets after ≈: the same amount, converted by molar mass. Like-named read-outs stand apart in the source and are kept apart here.

Assays:
[1] = target: T1, EGFR(L747-E749del, A750P) (Homo sapiens, UniProt P00533, A750P/DEL747-749); test: In vitro kinase assay (kinase-tagged phage, affinity beads, qPCR); format: binding
T1 construct: made in house; host or cells: E. coli BL21-derived host (T7 phage) or HEK-293 cells
T1 sequence (P00533 with tags, fused parts or gaps DEL747-749/A750P): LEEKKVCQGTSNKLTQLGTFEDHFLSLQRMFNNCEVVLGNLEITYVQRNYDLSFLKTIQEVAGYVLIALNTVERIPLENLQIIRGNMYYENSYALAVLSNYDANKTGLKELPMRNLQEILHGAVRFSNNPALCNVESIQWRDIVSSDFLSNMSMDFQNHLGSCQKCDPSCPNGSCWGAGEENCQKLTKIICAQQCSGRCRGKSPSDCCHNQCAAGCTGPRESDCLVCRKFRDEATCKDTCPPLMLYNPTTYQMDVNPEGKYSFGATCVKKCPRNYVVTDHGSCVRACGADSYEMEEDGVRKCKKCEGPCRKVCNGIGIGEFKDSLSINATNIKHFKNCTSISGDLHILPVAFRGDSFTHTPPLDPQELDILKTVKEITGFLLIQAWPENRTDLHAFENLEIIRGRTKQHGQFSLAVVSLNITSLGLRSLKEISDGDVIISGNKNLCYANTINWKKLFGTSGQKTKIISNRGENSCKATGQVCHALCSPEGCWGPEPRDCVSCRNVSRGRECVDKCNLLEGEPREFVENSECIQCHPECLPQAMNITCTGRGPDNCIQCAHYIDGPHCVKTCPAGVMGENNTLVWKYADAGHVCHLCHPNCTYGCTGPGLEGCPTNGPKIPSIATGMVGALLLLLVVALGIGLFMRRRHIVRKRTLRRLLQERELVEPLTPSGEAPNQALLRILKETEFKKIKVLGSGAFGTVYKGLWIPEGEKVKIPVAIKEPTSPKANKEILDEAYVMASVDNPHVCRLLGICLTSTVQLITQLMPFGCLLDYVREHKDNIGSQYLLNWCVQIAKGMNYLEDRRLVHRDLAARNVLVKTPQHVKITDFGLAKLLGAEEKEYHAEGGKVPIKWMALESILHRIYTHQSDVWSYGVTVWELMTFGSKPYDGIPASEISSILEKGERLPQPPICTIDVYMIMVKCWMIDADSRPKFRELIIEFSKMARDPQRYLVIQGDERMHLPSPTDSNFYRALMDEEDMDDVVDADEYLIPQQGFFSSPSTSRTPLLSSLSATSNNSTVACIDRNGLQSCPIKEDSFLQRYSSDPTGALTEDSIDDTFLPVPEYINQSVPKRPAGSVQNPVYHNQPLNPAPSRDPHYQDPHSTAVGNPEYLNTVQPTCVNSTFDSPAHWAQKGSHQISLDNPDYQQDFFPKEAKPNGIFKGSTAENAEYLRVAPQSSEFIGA
Experimental: (§1) An In Vitro Assay which Determines the Ability of a Test Compound to Inhibit Kinase:
(§2) Kinase-tagged T7 phage strains were prepared in an E. coli host derived from the BL21 strain. E. coli were grown to log-phase and infected with T7 phage and incubated with shaking at 32° C. until lysis. The lysates were centrifuged and filtered to remove cell debris. The remaining kinases were produced in HEK-293 cells and subsequently tagged with DNA for qPCR detection. Streptavidin-coated magnetic beads were treated with biotinylated small molecule ligands for 30 minutes at room temperature to generate affinity resins for kinase assays. The liganded beads were blocked with excess biotin and washed with blocking buffer (SeaBlock (Pierce), 1% BSA, 0.05% Tween 20, 1 mM DTT) to remove unbound ligand and to reduce non-specific binding. […] All reactions were performed in polystyrene 96-well plates in a final volume of 0.135 ml. […] The kinase concentration in the eluates was measured by qPCR.

ERBB4 = target: T2, ERBB4 (Homo sapiens, UniProt Q15303); test: as above; format: binding; conditions: Table A
T2 construct: made in house; host or cells: E. coli BL21-derived host (T7 phage) or HEK-293 cells
T2 sequence (Q15303 26-1308): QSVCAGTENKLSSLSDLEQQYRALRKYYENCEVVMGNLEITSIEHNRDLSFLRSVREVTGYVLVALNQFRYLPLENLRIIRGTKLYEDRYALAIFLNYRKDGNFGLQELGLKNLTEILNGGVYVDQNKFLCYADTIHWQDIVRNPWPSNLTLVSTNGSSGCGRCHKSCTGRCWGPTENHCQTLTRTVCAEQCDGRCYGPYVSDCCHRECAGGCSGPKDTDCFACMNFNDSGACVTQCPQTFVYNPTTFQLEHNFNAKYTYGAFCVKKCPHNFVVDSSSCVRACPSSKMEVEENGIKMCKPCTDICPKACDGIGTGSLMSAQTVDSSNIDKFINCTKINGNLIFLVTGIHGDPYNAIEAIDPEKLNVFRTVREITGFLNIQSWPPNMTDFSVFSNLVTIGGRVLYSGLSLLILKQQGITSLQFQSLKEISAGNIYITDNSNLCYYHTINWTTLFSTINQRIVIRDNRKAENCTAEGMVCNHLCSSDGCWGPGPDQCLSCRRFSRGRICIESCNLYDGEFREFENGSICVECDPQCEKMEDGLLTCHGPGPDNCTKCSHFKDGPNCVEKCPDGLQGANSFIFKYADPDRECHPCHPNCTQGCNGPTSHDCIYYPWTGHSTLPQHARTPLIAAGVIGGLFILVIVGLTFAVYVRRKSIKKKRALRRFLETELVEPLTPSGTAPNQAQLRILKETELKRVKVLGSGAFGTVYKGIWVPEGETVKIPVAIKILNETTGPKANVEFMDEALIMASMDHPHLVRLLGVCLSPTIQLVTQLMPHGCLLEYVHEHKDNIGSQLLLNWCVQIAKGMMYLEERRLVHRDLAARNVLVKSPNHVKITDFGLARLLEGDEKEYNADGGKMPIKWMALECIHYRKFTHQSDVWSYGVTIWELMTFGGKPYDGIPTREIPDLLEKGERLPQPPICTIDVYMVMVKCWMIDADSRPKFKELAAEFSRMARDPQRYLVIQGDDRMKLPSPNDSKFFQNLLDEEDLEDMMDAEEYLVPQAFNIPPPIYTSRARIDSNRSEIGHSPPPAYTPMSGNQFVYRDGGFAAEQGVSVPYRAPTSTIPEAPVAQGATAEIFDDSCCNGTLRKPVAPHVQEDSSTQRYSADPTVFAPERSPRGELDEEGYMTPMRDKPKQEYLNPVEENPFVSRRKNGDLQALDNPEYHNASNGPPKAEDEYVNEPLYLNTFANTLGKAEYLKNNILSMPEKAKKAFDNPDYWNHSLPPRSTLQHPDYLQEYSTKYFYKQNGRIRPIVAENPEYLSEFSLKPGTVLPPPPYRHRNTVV
Experimental: as §1, §2

HCC827 Cell = test: Cell proliferation assay (MTT); format: cell-based; conditions: Homo sapiens, 72 hours treatment
Experimental: (§3) A Representative Number of Compounds were Assayed Against Different Cancer Cell Lines Such as HCC827 and NCI-H69 Using the Cell Proliferation Assays:
(§4) Cell Proliferation Assays:
(§5) 1. 5×10^3 cells per well in 100 μl of medium were seeded in 96-well plate, while the medium here contained 5% FBS.
(§6) 2. 24 hours later, 100 μl fresh medium was added with various concentrations of compounds into each well, while the medium here was free of FBS.
(§7) 3. After the cells were treated with compounds for 72 hours, 20 μl MTT (5 mg/ml) was added into each well, and then the assay plate was incubated at 37° C. for 4 more hours.
(§8) 4. The assay plate was centrifuged at 800 g for 10 min. The medium was aspirated, 150 μl DMSO was added into each well. The plate was gently shaken for 10 min.
(§9) 5. The absorbance at 570 nm was measured on the plate reader.

NCI-H69 Cell = test: Cell proliferation assay (MTT); format: cell-based; conditions: Homo sapiens, 72 hours treatment
Experimental: as §3, §4, §5, §6, §7, §8, §9

CYP 3A4 = target: T3, CYP 3A4 (Homo sapiens, UniProt P08684); test: P450 3A4 assay in human liver microsomes; format: in vitro ADME; conditions: for pIC50: probe substrate testosterone
T3 construct: Incubation mixtures in duplicate contain pooled human liver microsome (0.1 mg/mL); from tissue; host or cells: pooled human liver microsomes
T3 sequence (P08684 whole entry): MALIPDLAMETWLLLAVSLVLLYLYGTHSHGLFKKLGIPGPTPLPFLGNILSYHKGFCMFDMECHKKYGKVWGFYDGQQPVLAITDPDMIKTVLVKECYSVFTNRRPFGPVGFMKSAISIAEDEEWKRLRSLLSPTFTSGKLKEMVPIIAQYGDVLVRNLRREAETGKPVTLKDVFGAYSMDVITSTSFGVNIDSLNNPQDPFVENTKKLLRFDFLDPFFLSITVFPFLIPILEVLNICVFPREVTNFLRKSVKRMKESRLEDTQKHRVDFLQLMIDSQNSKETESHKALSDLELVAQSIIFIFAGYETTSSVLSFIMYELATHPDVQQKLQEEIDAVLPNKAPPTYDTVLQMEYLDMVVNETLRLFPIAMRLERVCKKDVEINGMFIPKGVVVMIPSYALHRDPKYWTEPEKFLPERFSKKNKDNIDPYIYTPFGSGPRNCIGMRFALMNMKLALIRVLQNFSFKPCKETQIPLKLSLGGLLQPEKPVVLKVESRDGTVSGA
Experimental: The final concentrations of DMSO and acetonitrile were equal or less than 0.1%.
The column temperature was maintained at ambient temperature (25° C.). […] The flow rate was maintained at 0.6 mL/min.

[2] = Rate of metabolism in rat whole blood; format: in vitro ADME; conditions: for rate of metabolism (k) in Rat whole blood: 1.0 μM, 37° C., 0-2 h
Experimental: A Representative Number of Compounds were Tested in Rat Whole Blood to Measure Rate of Metabolism.
Preparation of Stock Solutions: Stock solution of test compound was provided in 100% DMSO. The stock solution for each compound was diluted into 500 μM with a mixture of acetonitrile: PBS buffer (2:8) and then diluted into rat blood (pH 7.4) to achieve a final concentration of 1.0 μM.
Incubation: 1.0 μM of test compound in duplicate was incubated in blood at 37° C. Aliquots of 50 μL sample were collected at 0 h, 0.25 h, 0.5 h, 1 h, and 2 h.
Sample preparation: Reactions were terminated at various time points (0, 0.25, 0.5, 1, 2 h) by adding 150 μL of ice-cold acetonitrile containing an internal standard. Centrifuge the plate (4000 rpm, 15 min). 100 μL of supernatants were transferred into a daughter plate containing 200 μL of H2O and 0.1% formic acid (v/v) in each well. The samples were analyzed with UPLC-MS/MS.
Data analysis: The peak area ratio of test compound to internal standard is plotted as a percentage of the relevant zero time point control (% Remained) for each reaction. The rate of metabolism (k) is the slope of the linear regression from log percentage remaining versus incubation time. The T½ is calculated as −0.693/k.

[3] = Solubility measurement (HPLC); format: physicochemical; conditions: for solubility at 30 min: aqueous buffer, thermodynamic from solid, 25° C.
Experimental: The compound was diluted with acetonitrile to 100 mL.
The solution was shook for 2 minutes and left for 30 minutes at 25° C. After standing for 30 minutes, precipitate was formed in the bottom of the EP. The solutions was filtered through 0.2 μm membrane filter, and then diluted by 50 times with water.
The standard and sample solutions were injected into the HPLC on a Shim-Pack CLC-ODS C18 column (150 mm×6.0 mm, 5 um) with the same volume. The mobile phase consisted of acetonitrile with 2% trichloromethane-20 mM KH2PO4 buffer (pH=7.0) at a flow rate of 1 mL/minutes (40:60). The detection wavelength is at 264 nm. Calculation: solubility of sample=the concentration of standard×Area of sample×50/Area of standard.

[4] = pH 7.0 buffer solution (20 mM), pH 7.0 buffer (20 mM), read-out: Solubility at pH 7.0
[5] = pH 10.0 buffer solution (20 mM), pH 10.0 buffer (20 mM), read-out: Solubility at pH 10.0

C[C@H]1Oc2cc(cnc2NC(=O)CN)-c2c(nn(C)c2C#N)CN(C)C(=O)c2ccc(F)cc21 [Compound 6, (10R)-7-(2-aminoacetyl)amino-12-fluoro-2,10,16-trimethyl-15-oxo-10,15,16,17-tetrahydro-2H-8,4-(metheno)pyrazolo[4,3-h][2,5,11]-benzoxadiazacyclotetradecine-3-carbonitrile]
inhibitor potency for mutant EGFR (L747-E749del, A750P) [1]: 0.42 µM
Kinase Inhibition EGFR(L747-E749del, A750P) ([1]; mutant EGFR, Table A): 0.4 µM
Kinase Inhibition ERBB4 (ERBB4): 5.7 µM
pIC50 (HCC827 Cell): 4.18
pIC50 (NCI-H69 Cell): 4.11
pIC50 (CYP 3A4): 5.00
rate of metabolism (k) in Rat whole blood [2]: 0.6169
K value compared with PF-06463922 and Compound 10 ([2]; rat whole blood, comparison in words): much larger K value
solubility compared with compound A at pH=7.0 ([3]; pH 7.0, comparison in words): much higher solubility
solubility at 30 min [3, 4]: 91 µg/mL (≈ 196 µM)
solubility at 30 min [3, 5]: 36 µg/mL (≈ 77.7 µM)

CC(=O)Nc1ncc2cc1O[C@H](C)c1cc(F)ccc1C(=O)N(C)Cc1nn(C)c(C#N)c1-2 [Compound 10, (10R)-7-acetamido-12-fluoro-2,10,16-trimethyl-15-oxo-10,15,16,17-tetrahydro-2H-8,4-(metheno)pyrazolo[4,3-h][2,5,11]-benzoxadiazacyclotetradecine-3-carbonitrile]
pIC50 (CYP 3A4): 4.85
rate of metabolism (k) in Rat whole blood [2]: 0.07435

C[C@H]1Oc2cc(cnc2N)-c2c(nn(C)c2C#N)CN(C)C(=O)c2ccc(F)cc21 [Compound A, (10R)-7-amino-12-fluoro-2,10,16-trimethyl-15-oxo-10,15,16,17-tetrahydro-2H-8,4-(metheno)pyrazolo[4,3-h][2,5,11]-benzoxadiazacyclotetradecine-3-carbonitrile, reference compound]
Cytochrome P450 3A4 inhibition (DDI risk class) (CYP 3A4): moderate (3 μM<IC50<10 μM CYP inhibition moderate)
rate of metabolism (k) in Rat whole blood [2]: −0.07473
solubility at 30 min [3, 4]: 29 µg/mL (≈ 71.4 µM)
solubility at 30 min [3, 5]: 28 µg/mL (≈ 68.9 µM)
